From patent US20250144032A1, “POLY(BETA-AMINO ESTER) MICROPARTICLES FOR MICRONUTRIENT FORTIFICATION” (Massachusetts Institute of Technology, priority 2021, published 2025)

Test: Boiling stability of micronutrients in water at 100 °C (simulated cooking)
Type: physicochemical
Procedure: To evaluate the effects on VA stabilization, VA (10% wt) was encapsulated with MPs fabricated from PAE_C, PAE_D, or PAE_E. The resulting MPs were tested in boiling water for 2 hours.
The boiling stability of micronutrients in PAE MP was studied in water at 100° C. At each time point, samples were lyophilized to obtain the boiled product.
High-performance liquid chromatography (HPLC), inductively coupled plasma-optical emission spectrometer (ICP-OES), and colorimetric assay kits were used for micronutrient quantification.

VA recovered after boiling for 0.5 h: less than 20%
Compound: CCCCCCCCCCCCCCCC(=O)OC/C=C(C)/C=C/C=C(C)/C=C/C1=C(C)CCCC1(C)C [VA, retinyl palmitate]
